Data as given in patent US20230233569A1 (Revolution Medicines, Inc., priority 2020, published 2023).
Read-outs that look alike come from different tables or passages of the source.

What was measured:
Test in all cases: Ras-Raf disruption / FRET / MOA assay (BRAF RBD)
Type in all cases: biochemical
NRAS G12C = NRAS G12C (Homo sapiens, UniProt P01111+P62937, G12C)
From the text: (§1) Disruption of […] Ras-binding Domain (BRAF^RBD) Interaction with K-Ras by Compounds of the Invention (also Called a FRET Assay or an MOA Assay)
(§2) Note—The following protocol describes a procedure for monitoring disruption of K-Ras G12C (GMP-PNP) binding to BRAF^RBD by a compound of the invention. This protocol may also be executed substituting other Ras proteins or nucleotides, such as K-Ras G12D and K-Ras G13D.
(§3) The purpose of this biochemical assay was to measure the ability of test compounds to facilitate ternary complex formation between a nucleotide-loaded K-Ras isoform and Cyclophilin A; the resulting ternary complex disrupts binding to a BRAF^RBD construct, inhibiting K-Ras signaling through a RAF effector. Data is reported as IC50 values.
(§4) In assay buffer containing 25 mM HEPES pH 7.3, 0.002% Tween20, 0.1% BSA, 100 mM NaCl and 5 mM MgCl2, tagless Cyclophilin A, His6-K-Ras-GMPPNP, and GST-BRAF^RBD were combined in a 384-well assay plate at final concentrations of 25 μM, 12.5 nM, and 50 nM, respectively. Compound was present in plate wells as a 10-point 3-fold dilution series starting at a final concentration of 30 μM. After incubation at 25° C. for 3 hours, a mixture of anti-His Eu-W1024 and anti-GST allophycocyanin was then added to assay sample wells at final concentrations of 10 nM and 50 nM, respectively, and the reaction incubated for an additional 1.5 hours. […] Compounds that facilitate disruption of a K-Ras:RAF complex were identified as those eliciting a decrease in the TR-FRET ratio relative to DMSO control wells.

KRAS G13C = KRAS G13C (Homo sapiens, UniProt P01116+P62937, G13C); conditions: with Cyclophilin A
From the text: as §1, §2, §3, §4

KRAS G12V = KRAS G12V (Homo sapiens, UniProt P01116+P62937, G12V); conditions: with Cyclophilin A
From the text: as §1, §2, §3, §4

KRAS G13D = KRAS G13D (Homo sapiens, UniProt P01116+P62937, G13D); conditions: with Cyclophilin A
From the text: as §1, §2, §3, §4

KRAS G12S = KRAS G12S (Homo sapiens, UniProt P01116+P62937, G12S); conditions: with Cyclophilin A
From the text: as §1, §2, §3, §4

KRAS WT = KRAS WT (Homo sapiens, UniProt P01116+P62937); conditions: with Cyclophilin A
From the text: as §1, §2, §3, §4

KRAS G12D = KRAS G12D (Homo sapiens, UniProt P01116+P62937, G12D); conditions: with Cyclophilin A
From the text: as §1, §2, §3, §4

KRAS G12C = KRAS G12C (Homo sapiens, UniProt P01116+P62937, G12C); conditions: with Cyclophilin A
From the text: as §1, §2, §3, §4
as §3, with “is” for “was”, “Ras” for “K-Ras”, “cyclophilin” for “Cyclophilin”, “effector.” for “effector. Data is reported as IC50 values.”
In assay buffer containing 25 mM HEPES pH 7.3, 0.002% Tween20, 0.1% BSA, 100 mM NaCl and 5 mM MgCl2, tagless Cyclophilin A, His6-K-Ras-GMPPNP (or other Ras variant), and GST-BRAF^RBD are combined in a 384-well assay plate at final concentrations of 25 μM, 12.5 nM and 50 nM, respectively. Compound is present in plate wells as a 10-point 3-fold dilution series starting at a final concentration of 30 μM. After incubation at 25° C. for 3 hours, a mixture of Anti-His Eu-W1024 and anti-GST allophycocyanin is then added to assay sample wells at final concentrations of 10 nM and 50 nM, respectively, and the reaction incubated for an additional 1.5 hours. […] Compounds that facilitate disruption of a Ras:RAF complex are identified as those eliciting a decrease in the TR-FRET ratio relative to DMSO control wells.

[1] = NRAS G12C, read-out: NRAS G12C FRET data IC50
[2] = Ras-Raf disruption, read-out: KRAS G13C FRET data IC50
[3] = Ras-Raf disruption, read-out: KRAS G12V FRET data IC50
[4] = Ras-Raf disruption, read-out: KRAS G13D FRET data IC50
[5] = Ras-Raf disruption, read-out: KRAS G12S FRET data IC50
[6] = Ras-Raf disruption, read-out: KRAS WT FRET data IC50
[7] = Ras-Raf disruption, read-out: KRAS G12D FRET data IC50
[8] = Ras-Raf disruption, read-out: KRAS G12C FRET data IC50

KRAS G13C, sequence (P01116 1-169 isoform P01116-2 G13C limits assumed): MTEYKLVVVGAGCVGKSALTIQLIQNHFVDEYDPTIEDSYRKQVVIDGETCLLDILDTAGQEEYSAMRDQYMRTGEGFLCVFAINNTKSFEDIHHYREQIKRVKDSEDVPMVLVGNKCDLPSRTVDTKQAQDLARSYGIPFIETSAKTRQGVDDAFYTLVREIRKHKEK
KRAS G13C, sequence (P62937 whole entry): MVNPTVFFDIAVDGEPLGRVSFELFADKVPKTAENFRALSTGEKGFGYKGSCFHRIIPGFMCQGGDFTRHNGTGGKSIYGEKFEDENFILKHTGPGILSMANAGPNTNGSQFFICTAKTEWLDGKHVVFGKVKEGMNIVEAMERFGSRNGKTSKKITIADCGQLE
KRAS G13D, sequence (P01116 1-169 isoform P01116-2 G13D limits assumed): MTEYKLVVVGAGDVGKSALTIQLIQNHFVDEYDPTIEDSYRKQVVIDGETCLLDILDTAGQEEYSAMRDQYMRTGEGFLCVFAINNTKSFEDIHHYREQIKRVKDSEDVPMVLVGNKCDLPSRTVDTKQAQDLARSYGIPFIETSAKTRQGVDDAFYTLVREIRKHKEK
KRAS G13D, sequence (P62937 whole entry): as the sequence (P62937 whole entry) above
KRAS WT, sequence (P01116 1-169 isoform P01116-2 limits assumed): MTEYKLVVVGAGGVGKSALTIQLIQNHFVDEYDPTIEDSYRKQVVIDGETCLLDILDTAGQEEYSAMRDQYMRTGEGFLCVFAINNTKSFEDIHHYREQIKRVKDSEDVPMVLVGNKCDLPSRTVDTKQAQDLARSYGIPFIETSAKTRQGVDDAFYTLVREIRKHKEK
KRAS WT, sequence (P62937 whole entry): as the sequence (P62937 whole entry) above
KRAS G12S, sequence (P01116 1-169 isoform P01116-2 G12S limits assumed): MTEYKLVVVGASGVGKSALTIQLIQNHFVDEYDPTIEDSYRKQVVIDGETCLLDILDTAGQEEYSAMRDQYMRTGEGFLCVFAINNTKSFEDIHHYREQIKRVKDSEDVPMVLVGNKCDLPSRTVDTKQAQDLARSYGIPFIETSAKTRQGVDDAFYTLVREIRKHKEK
KRAS G12S, sequence (P62937 whole entry): as the sequence (P62937 whole entry) above
NRAS G12C, sequence (P01111 whole entry G12C, the tested form may be a part): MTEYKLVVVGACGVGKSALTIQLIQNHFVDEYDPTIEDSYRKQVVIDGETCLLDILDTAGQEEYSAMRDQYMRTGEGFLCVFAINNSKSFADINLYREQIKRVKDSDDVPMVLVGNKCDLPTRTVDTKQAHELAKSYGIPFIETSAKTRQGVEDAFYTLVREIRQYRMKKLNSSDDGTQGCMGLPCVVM
NRAS G12C, sequence (P62937 whole entry, the tested form may be a part): as the sequence (P62937 whole entry) above
KRAS G12V, sequence (P01116 1-169 isoform P01116-2 G12V limits assumed): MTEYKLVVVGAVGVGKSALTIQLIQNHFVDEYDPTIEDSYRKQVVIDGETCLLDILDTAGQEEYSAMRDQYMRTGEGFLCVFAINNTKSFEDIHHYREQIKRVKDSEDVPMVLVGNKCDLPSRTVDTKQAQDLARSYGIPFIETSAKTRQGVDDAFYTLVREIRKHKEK
KRAS G12V, sequence (P62937 whole entry): as the sequence (P62937 whole entry) above
KRAS G12C, sequence (P01116 1-169 isoform P01116-2 G12C limits assumed): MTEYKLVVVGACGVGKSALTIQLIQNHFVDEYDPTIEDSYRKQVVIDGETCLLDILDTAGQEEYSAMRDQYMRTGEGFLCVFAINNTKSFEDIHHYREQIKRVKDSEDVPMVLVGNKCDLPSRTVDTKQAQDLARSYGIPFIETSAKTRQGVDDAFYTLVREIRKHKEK
KRAS G12C, sequence (P62937 whole entry): as the sequence (P62937 whole entry) above
KRAS G12D, sequence (P01116 1-169 isoform P01116-2 G12D limits assumed): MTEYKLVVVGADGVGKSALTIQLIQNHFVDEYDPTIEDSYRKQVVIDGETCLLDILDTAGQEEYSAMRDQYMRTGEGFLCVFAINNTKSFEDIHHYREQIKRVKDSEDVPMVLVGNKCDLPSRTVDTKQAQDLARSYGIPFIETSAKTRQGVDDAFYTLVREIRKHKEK
KRAS G12D, sequence (P62937 whole entry): as the sequence (P62937 whole entry) above

| Structure (SMILES) | IC50 (NRAS G12C; NRAS G12C FRET data IC50, NRAS G12C) [nM] | IC50 (KRAS G13C; KRAS G13C FRET data IC50, Ras-Raf disruption) [nM] | IC50 (KRAS G12V; KRAS G12V FRET data IC50, Ras-Raf disruption) [nM] | IC50 (KRAS G13D; KRAS G13D FRET data IC50, Ras-Raf disruption) [nM] | IC50 (KRAS G12S; KRAS G12S FRET data IC50, Ras-Raf disruption) [nM] | IC50 (KRAS WT; KRAS WT FRET data IC50, Ras-Raf disruption) [nM] | IC50 (KRAS G12D; KRAS G12D FRET data IC50, Ras-Raf disruption) [nM] | IC50 (KRAS G12C; KRAS G12C FRET data IC50, Ras-Raf disruption) [nM] | IC50 (NRAS G12C; [1]) [nM] | IC50 (KRAS G13C; [2]) [nM] | IC50 (KRAS G12V; [3]) [nM] | IC50 (KRAS G13D; [4]) [nM] | IC50 (KRAS G12S; [5]) [nM] | IC50 (KRAS WT; [6]) [nM] | IC50 (KRAS G12D; [7]) [nM] | IC50 (KRAS G12C; [8]) [nM] |
| --- | --- | --- | --- | --- | --- | --- | --- | --- | --- | --- | --- | --- | --- | --- | --- | --- |
| CCn1c(-c2cccnc2[C@H](C)OC)c2c3cc(ccc31)-c1cc(O)cc(c1)C[C@H](NC(=O)[C@H](C(C)C)N(C)C(=O)CN(C)C(=O)[C@H]1CN1)C(=O)N1CCC[C@H](N1)C(=O)OCC(C)(C)C2 (single isomer, unassigned) [Example 42B] | 100 to 1000 | 100 to 1000 | 1000 to 10000 | 1000 to 10000 | 1000 to 10000 | 1000 to 10000 | 1000 to 10000 | 100 to 1000 |  |  |  |  |  |  |  |  |
| CCn1c(-c2cccnc2[C@H](C)OC)c2c3cc(ccc31)-c1cc(O)cc(c1)C[C@H](NC(=O)[C@H](C(C)C)N(C)C(=O)[C@H]1CCN(C(=O)[C@H]3CN3)C1)C(=O)N1CCC[C@H](N1)C(=O)OCC(C)(C)C2 (single isomer, unassigned) [Example 43A] |  |  |  |  |  |  |  |  | < 10 | 10 to 100 | 10 to 100 | 10 to 100 | 10 to 100 | 10 to 100 | 10 to 100 | < 10 |
| CCn1c(-c2cccnc2[C@H](C)OC)c2c3cc(ccc31)-c1cc(O)cc(c1)C[C@H](NC(=O)[C@H](C(C)C)N(C)C(=O)[C@H]1CCN(S(=O)(=O)[C@@H]3CN3C)C1)C(=O)N1CCC[C@H](N1)C(=O)OCC(C)(C)C2 (single isomer, unassigned) [Example 56] |  |  |  |  |  |  |  |  | 100 to 1000 | 10 to 100 | 100 to 1000 | 100 to 1000 | 100 to 1000 | 100 to 1000 | 100 to 1000 | 10 to 100 |
| CCn1c(-c2cccnc2[C@H](C)OC)c2c3cc(ccc31)-c1cc(O)cc(c1)C[C@H](NC(=O)[C@H](C(C)C)N(C)C(=O)[C@H]1CCN(S(=O)(=O)[C@H]3CN3C)C1)C(=O)N1CCC[C@H](N1)C(=O)OCC(C)(C)C2 (single isomer, unassigned) [Example 57] |  |  |  |  |  |  |  |  | 100 to 1000 | 10 to 100 | 100 to 1000 | 100 to 1000 | 100 to 1000 | 100 to 1000 | 1000 to 10000 | 100 to 1000 |
| CCn1c(-c2cccnc2[C@H](C)OC)c2c3cc(ccc31)-c1cc(O)cc(c1)C[C@H](NC(=O)[C@H](C(C)C)N(C)C(=O)C1CN(S(=O)(=O)[C@@H]3CN3C)C1)C(=O)N1CCC[C@H](N1)C(=O)OCC(C)(C)C2 (single isomer, unassigned) [Example 118] |  |  |  |  |  |  |  |  | 100 to 1000 | 10 to 100 | 100 to 1000 | 100 to 1000 | 100 to 1000 | 100 to 1000 | 1000 to 10000 | 100 to 1000 |
| CCn1c(-c2cnccc2COC)c2c3cc(ccc31)-c1cccc(c1)C[C@H](NC(=O)[C@H](C(C)C)N(C)C(=O)CCN=C=NCCOC)C(=O)N1CCC[C@H](N1)C(=O)OCC(C)(C)C2 [23 A and B] |  |  |  |  |  |  |  |  | 10 to 100 | 1000 to 10000 | > 10000 | > 10000 | 1000 to 10000 | 1000 to 10000 | 1000 to 10000 | 10 to 100 |
| CCn1c(-c2cnccc2COC)c2c3cc(ccc31)-c1cccc(c1)C[C@H](NC(=O)[C@H](C(C)C)N(C)C(=O)CCN=C=NCc1c(OC)cccc1OC)C(=O)N1CCC[C@H](N1)C(=O)OCC(C)(C)C2 [62 A and B] |  |  |  |  |  |  |  |  | 1000 to 10000 | 1000 to 10000 | > 10000 | 1000 to 10000 | 1000 to 10000 | 1000 to 10000 | 1000 to 10000 | 1000 to 10000 |
| CCn1c(-c2cnccc2COC)c2c3cc(ccc31)-c1cccc(c1)C[C@H](NC(=O)[C@H](C(C)C)N(C)C(=O)CC(C)(C)N=C=Nc1ccc(OC)cc1)C(=O)N1CCC[C@H](N1)C(=O)OCC(C)(C)C2 [64 A and B] |  |  |  |  |  |  |  |  | > 10000 | > 10000 | > 10000 | > 10000 | > 10000 | > 10000 | > 10000 | > 10000 |
| CCn1c(-c2cnccc2COC)c2c3cc(ccc31)-c1cc(O)cc(c1)C[C@H](NC(=O)[C@H](C(C)C)N(C)C(=O)CN(C)C(=O)[C@H]1[C@@H](C(=O)OC)N1[S@+]([O-])C(C)(C)C)C(=O)N1CCC[C@H](N1)C(=O)OCC(C)(C)C2 (stereo partly shown) [Example 48] |  |  |  |  |  |  |  |  | 10 to 100 | 10 to 100 | 10 to 100 | 100 to 1000 | 10 to 100 | 100 to 1000 | 100 to 1000 | 10 to 100 |
| CCn1c(-c2cccnc2[C@H](C)OC)c2c3cc(ccc31)-c1cc(O)cc(c1)C[C@H](NC(=O)[C@H](C(C)C)N1CCC3(CCN(C(=O)[C@H]4CN4)C3)C1=O)C(=O)N1CCC[C@H](N1)C(=O)OCC(C)(C)C2 (stereo partly shown) [Example 59] |  |  |  |  |  |  |  |  | < 10 | 10 to 100 | 10 to 100 | 100 to 1000 | 10 to 100 | 10 to 100 | 10 to 100 | 10 to 100 |
| CCn1c(-c2cccnc2[C@H](C)OC)c2c3cc(ccc31)-c1cccc(c1)C[C@H](NC(=O)[C@H](C(C)C)N(C)C(=O)CCN=C=NCc1ccccc1OC)C(=O)N1CCC[C@H](N1)C(=O)OCC(C)(C)C2 [Example 73] |  |  |  |  |  |  |  |  | 10 to 100 | 1000 to 10000 | > 10000 | 1000 to 10000 | 1000 to 10000 | 1000 to 10000 | 100 to 1000 | 10 to 100 |
| CCn1c(-c2cccnc2[C@H](C)OC)c2c3cc(ccc31)-c1cccc(c1)C[C@H](NC(=O)[C@H](C(C)C)N(C)C(=O)CCN=C=NCCOC)C(=O)N1CCC[C@H](N1)C(=O)OCC(C)(C)C2 [Example 74] |  |  |  |  |  |  |  |  | 10 to 100 | 100 to 1000 | 1000 to 10000 | 1000 to 10000 | 1000 to 10000 | 1000 to 10000 | 100 to 1000 | 10 to 100 |
| CCn1c(-c2cccnc2[C@H](C)OC)c2c3cc(ccc31)-c1cccc(c1)C[C@H](NC(=O)[C@H](C(C)C)N(C)C(=O)[C@H]1CC[C@H](N=C=NCc3ccccc3OC)C1)C(=O)N1CCC[C@H](N1)C(=O)OCC(C)(C)C2 [Example 76] |  |  |  |  |  |  |  |  | 100 to 1000 | 100 to 1000 | > 10000 | > 10000 | > 10000 | 1000 to 10000 | 1000 to 10000 | 100 to 1000 |
| CCn1c(-c2cccnc2[C@H](C)OC)c2c3cc(ccc31)-c1cccc(c1)C[C@H](NC(=O)[C@H](C(C)C)N(C)C(=O)[C@H]1C[C@H](N=C=NCc3ccccc3OC)C1)C(=O)N1CCC[C@H](N1)C(=O)OCC(C)(C)C2 [Example 77] |  |  |  |  |  |  |  |  | 10 to 100 | 10 to 100 | 1000 to 10000 | > 10000 | 1000 to 10000 | 1000 to 10000 | 1000 to 10000 | 10 to 100 |
